Source: publication PMC12067741, “Inhibition of SOD1 trimerization is a novel drug target for ALS disease” (Translational Neurodegeneration, 2025)

Assays:
[1] = BBB-PAMPA (parallel artificial membrane permeability assay); details: for recovery at 4 h, 10 µM: PAMPA
Excerpt: Next, we checked the basic in vitro ADME test including pharmacokinetics, plasma protein binding, CYP (Cytochrome P450) inhibition, metabolic stability and blood–brain barrier (BBB) permeability. […] We also plan to test safety panel assay in the future to obtain safety data for the drug.
Fig. S8. […]

MT-SOD1 protein uptake = assay: SOD1 recombinant protein uptake into neuronal cells; format: cell-based; details: SH-SY5Y cells, Dynasore 50 mM (so in the source), 6 hr
Method: For monitoring the localization of SOD1 recombinant proteins, SOD1-Halo proteins were added in neuronal cultures for 2 h and then the cells were incubated with the cell-permeable HaloTag-fluorscent ligands (diAcFAM) for 30 min. After incubation, cells were washed with serum-free culture medium three times and incubated in serum-containing culture medium in a CO2 incubator for 30 min to wash out unbound ligand. Fluorescent images of live cells were obtained using a commercial Tomocube HT-2H holotomography system (Daejeon, Republic of Korea).
We hypothesized that PRG-A-04, which targets trimeric SOD1, would inhibit SOD1 protein uptake. MT-SOD1 proteins were incubated with PRG-A-04 in vitro, and then cells were treated with the mixture. The MT-SOD1 protein uptake was reduced by incubation with PRG-A-04, as was SOD1 oligomerization (Fig. 3f, g). […] However, whether neuron-specific receptors on synapses, physiological conditions (neuronal cellular stress such as ion deficiency, environmental conditions such as hypoxia) and other ALS-related genetic causes (TDP-43, FUS, etc.) are essential for SOD1 uptake requires further study.
Fig. S3 SOD1 protein uptake into the cells through endocytosis. a, The uptake of SOD1 proteins was achieved by endocytosis. SH-SY5Y cells were treated with SOD1 recombinant proteins and endocytosis inhibitor (Dynasore; […]) for 6hr. After incubations, cells were harvested with RIPA and separated by SDS-PAGE. S.E: short exposure, L.E: long exposure. b, The recombinant MT-SOD1 protein is located intracellular space in neuron cells. SOD1-Halo proteins (3 μg/ml) were treated in neuron cells for 2 hr and incubated with HaloTag-fluorscent ligands (cellpermeable ligands; diAcFAM) for 30 min. After incubation, cells were washed with fresh culture medium three times and.
Incubate cells in complete culture medium at CO2 incubator for 30 min to wash unbound ligand. The fluorescence images of live cells were obtained using a commercial holotomography (HT-2H). White arrows indicate the intensity of SOD1. BF; Bright field, Scale bar; […].

[2] = molecular target: misfolding-specific SOD1 antibody (Mis-SOD1 Ab); assay: dot blot assay, band intensity quantified with Image J; details: normalised to Con, read off a plot
[3] = molecular target: pan-SOD1 antibody (Pan-SOD1 Ab); assay: as above; details: normalised to Con, read off a plot
ALS = details: cited from earlier work
WT-WT SOD1 interaction = system: WT-WT SOD1 interaction; set-up: method as in PMID 34912047; details: cited from earlier work
[4] = Pharmacokinetics in mice (compound screening, IV/PO); format: in vivo, mouse
Method: Fig. S1. Optimized inhibitor reduces SOD1 aggregation. a, Mutant SOD1s induced WT-SOD1 aggregation. Testing the selected chemicals to check the inhibitory effect on SOD1 aggregation .HEK293 cells were transfected with MT-SOD1 vectors (A4V, G 93 A) and treated with selected chemicals (5 mM). After incubation, transfected cells were harvested with TNNI buffer and fixed with 0.04% glutaraldehyde (Glu) for 30min. Samples were separated using SDS-PAGE. b-c, PRG-A-04 inhibited SOD1 inclusions in SK-N-SH cells. (b) Cells expressing MT-SOD1 vectors were treated with PRG-A-04 ([…]) for 24 hr. After incubation, cells were fixed with 4 % PFA and observed under the fluorescence microscope. (c) Cells with SOD1 inclusions (white arrows; strong intensity of SOD1) were counted by photomicrographs and the percentages were shown with standard deviation (SD). For cell counting, ten fluorescence images were randomly selected. Counting of cells were performed by three independent observers, who were blinded to transfection or chemical treatment group; two-tailed Student’s t-test. NS; Not significant, ****P < 0.001, d, PRG-A- […]
degradationin blood as well as gastro-intestinal tract.IV; intravenous injected group, PO; Per Os administrated group e, […]
show cytotoxicity. To know the toxic effect of PRG-A-04 , human normal fibroblast (f) and neuron cells (g) were incubated with PRG -A-04 for 48 hr dose dependently and measured the viability through MTT assay .“Con” means Dimethyl sulfoxide (DMSO) -treated control . The data are normalized to DMSO-treated cells. n=3 independent experiments; two-tailed Student’s t-test.NS; Not significant, *P < 0.05, **P < 0.01, ***P < 0.005.

SOD1^G93A−Tg mice = system: SOD1^G93A−Tg mice; set-up: method as in PMID 34912047; details: cited from earlier work
[5] = Con (no PRG-A-04), Mis-SOD1 signal over Pan-SOD1 signal
[6] = PRG-A-04 treated, Mis-SOD1 signal over Pan-SOD1 signal

Sequence of WT-SOD1 (wild-type SOD1) expressed in transfected cells (from UniProt P00441) G93A (P00441 whole entry, looked up, stated change not applied): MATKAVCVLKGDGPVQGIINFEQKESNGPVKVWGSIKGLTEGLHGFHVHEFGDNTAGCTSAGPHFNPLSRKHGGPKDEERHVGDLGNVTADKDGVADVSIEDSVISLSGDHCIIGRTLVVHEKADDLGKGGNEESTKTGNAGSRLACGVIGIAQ
Sequence of WT-SOD1 (wild-type SOD1) expressed in transfected cells (from UniProt P00441) G85R (P00441 whole entry, looked up, stated change not applied): as above

Compound: CC(C)NCC(O)COc1ccc(CC(N)=O)cc1 (stereo not shown) [Atenolol]
- recovery at 4 h, 10 µM [1]: < 109%

Compound: O=C(N/N=C/c1ccc(O)c(O)c1)c1cc2ccccc2cc1O [Dynasore, reference compound]
- effect on SOD1 protein uptake (MT-SOD1 protein uptake): inhibited

Compound: WT-SOD1 (wild-type SOD1) expressed in transfected cells (from UniProt P00441) G85R
- response [2, 5]: 1 A.U.
- response ([2]; Con (no PRG-A-04)): 1 A.U.
- response [2, 6]: 0.42 A.U.
- response ([2]; PRG-A-04 treated): 0.53 A.U.
- response ([3]; Con (no PRG-A-04)): 1 A.U.
- response ([3]; PRG-A-04 treated): 1.3 A.U.

Compound: CC1=NN(c2ccccc2)C(=O)C1 [radicava]
- efficacy on ALS progression (ALS): efficacy in delaying ALS progression
- efficacy on survival rate (ALS): no efficacy on survival rate

Compound: Tofersen
- effect on functional decline in clinical trials (ALS; SOD1-ALS patients): failed to improve functional decline

Compound: Nc1nc2ccc(OC(F)(F)F)cc2s1 [riluzole]
- efficacy on ALS progression (ALS): efficacy in delaying ALS progression

Compound: COc1cc(C=CC(=O)OC2Cc3cc4ccc(=O)oc4cc3OC2(C)C)ccc1O (stereo not shown) [PRG-A-01]
- effect on WT-WT SOD1 interaction (WT-WT SOD1 interaction): did not show inhibitory effects
- bioavailability ([4]; in vivo): poorly bioavailable
- degradation in blood as well as gastro-intestinal tract ([4]; pharmacokinetics analysis, IV and PO groups (Fig. S1d)): rapid
- extension of lifespan of SOD1G93A-Tg mice (SOD1^G93A−Tg mice): about 10 days

Compound: WT-SOD1 (wild-type SOD1) expressed in transfected cells (from UniProt P00441) G93A
- response [2, 5]: 1 A.U.
- response ([2]; Con (no PRG-A-04)): 1 A.U.
- response [2, 6]: 0.25 A.U.
- response ([2]; PRG-A-04 treated): 0.2 A.U.
- response ([3]; Con (no PRG-A-04)): 1 A.U.
- response ([3]; PRG-A-04 treated): 0.77 A.U.

Compound: CC(C)NCC(O)COc1cccc2ccccc12 (stereo not shown) [Propranolol]
- Mean Pe ([1]; BBB-PAMPA, test concentration 10 µM, incubation 4 hour): 7.66 ×10⁻⁶ cm/s
- Permeability ([1]; BBB-PAMPA, test concentration 10 µM, incubation 4 hour, class in words): High
- recovery at 4 h, 10 µM [1]: 82.4%
